{
  "source": "ChEMBL document CHEMBL1201862",
  "about": "“PubChem BioAssay data set” (2004)",
  "experiment_in_all_cases": "NCI-60 cell line screen, 48 h",
  "key": {"OVCAR-5": {"tested_on": "OVCAR-5"}, "T47D": {"tested_on": "T47D"}, "786-0": {"tested_on": "786-0"}, "MDA-N": {"tested_on": "MDA-N"}, "TK-10": {"tested_on": "TK-10"}, "EKVX": {"tested_on": "EKVX"}, "SNB-19": {"tested_on": "SNB-19"}, "HCT-15": {"tested_on": "HCT-15"}, "U-251": {"tested_on": "U-251"}, "HT-29": {"tested_on": "HT-29"}, "HOP-92": {"tested_on": "HOP-92"}, "IGROV-1": {"tested_on": "IGROV-1"}, "HCT-116": {"tested_on": "HCT-116"}, "HCC 2998": {"tested_on": "HCC 2998"}, "A549": {"tested_on": "A549"}, "OVCAR-8": {"tested_on": "OVCAR-8"}, "NCI-H226": {"tested_on": "NCI-H226"}, "NCI-H522": {"tested_on": "NCI-H522"}, "MDA-MB-435": {"tested_on": "MDA-MB-435"}, "MCF7": {"tested_on": "MCF7"}, "SK-MEL-2": {"tested_on": "SK-MEL-2"}, "K562": {"tested_on": "K562"}, "M14": {"tested_on": "M14"}, "MDA-MB-231": {"tested_on": "MDA-MB-231"}, "COLO 205": {"tested_on": "COLO 205"}, "HOP-62": {"tested_on": "HOP-62"}, "A498": {"tested_on": "A498"}, "KM12": {"tested_on": "KM12"}, "UACC-62": {"tested_on": "UACC-62"}, "ACHN": {"tested_on": "ACHN"}, "CCRF-CEM": {"tested_on": "CCRF-CEM"}, "Hs-578T": {"tested_on": "Hs-578T"}, "RXF 393": {"tested_on": "RXF 393"}, "SF-539": {"tested_on": "SF-539"}, "BT-549": {"tested_on": "BT-549"}, "OVCAR-3": {"tested_on": "OVCAR-3"}, "RPMI-8226": {"tested_on": "RPMI-8226"}, "LOX IMVI": {"tested_on": "LOX IMVI"}, "PC-3": {"tested_on": "PC-3"}, "SK-OV-3": {"tested_on": "SK-OV-3"}, "MOLT-4": {"tested_on": "MOLT-4"}, "HL-60": {"tested_on": "HL-60"}, "SNB-75": {"tested_on": "SNB-75"}, "CAKI-1": {"tested_on": "CAKI-1"}, "NCI-H460": {"tested_on": "NCI-H460"}, "SN12C": {"tested_on": "SN12C"}, "SF-295": {"tested_on": "SF-295"}, "SW-620": {"tested_on": "SW-620"}, "UACC-257": {"tested_on": "UACC-257"}, "NCI/ADR-RES": {"tested_on": "NCI/ADR-RES"}, "Malme-3M": {"tested_on": "Malme-3M"}, "OVCAR-4": {"tested_on": "OVCAR-4"}, "SK-MEL-5": {"tested_on": "SK-MEL-5"}, "SR": {"tested_on": "SR"}, "NCI-H23": {"tested_on": "NCI-H23"}},
  "note": "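Results reflect a 48-hour exposure of cells in 96-well plates to compound at five concentrations. GI50 marks 50% less growth.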 Activity calls are given as the source filed them. No stated cut-off is given here; in the data, active = GI50 up to about 1.1 µM and inactive = higher.",
  "data": [
    {"smiles": "COC(=O)/C=C(\\S/C=C(/c1ccccc1)N1CCn2c(C(=O)c3ccccc3)c(C(=O)OC)c(C(=O)OC)c21)C(=O)OC", "values": [
      {"measurement": "GI50", "setting": "OVCAR-5", "value": "9.95 µM (inactive)"},
      {"measurement": "GI50", "setting": "T47D", "value": "2.92 µM (inactive)"},
      {"measurement": "GI50", "setting": "786-0", "value": "1.66 µM (inactive)"},
      {"measurement": "GI50", "setting": "MDA-N", "value": "> 10 µM (inactive)"},
      {"measurement": "GI50", "setting": "TK-10", "value": "2.63 µM (inactive)"},
      {"measurement": "GI50", "setting": "EKVX", "value": "> 10 µM (inactive)"},
      {"measurement": "GI50", "setting": "SNB-19", "value": "> 10 µM (inactive)"},
      {"measurement": "GI50", "setting": "HCT-15", "value": 2.6, "unit": "µM"},
      {"measurement": "GI50", "setting": "U-251", "value": "3.93 µM (inactive)"},
      {"measurement": "GI50", "setting": "HT-29", "value": "2.77 µM (inactive)"},
      {"measurement": "GI50", "setting": "HOP-92", "value": "1.23 µM (inactive)"},
      {"measurement": "GI50", "setting": "IGROV-1", "value": "> 10 µM (inactive)"},
      {"measurement": "GI50", "setting": "HCT-116", "value": "2.34 µM (inactive)"},
      {"measurement": "GI50", "setting": "HCC 2998", "value": "> 10 µM (inactive)"},
      {"measurement": "GI50", "setting": "A549", "value": "> 10 µM (inactive)"},
      {"measurement": "GI50", "setting": "OVCAR-8", "value": "1.73 µM (inactive)"},
      {"measurement": "GI50", "setting": "NCI-H226", "value": "> 10 µM (inactive)"},
      {"measurement": "GI50", "setting": "NCI-H522", "value": "0.434 µM (active)"},
      {"measurement": "GI50", "setting": "MDA-MB-435", "value": "3.97 µM (inactive)"},
      {"measurement": "GI50", "setting": "MCF7", "value": "1.42 µM (inactive)"},
      {"measurement": "GI50", "setting": "SK-MEL-2", "value": "> 10 µM (inactive)"},
      {"measurement": "GI50", "setting": "K562", "value": "3.53 µM (inactive)"},
      {"measurement": "GI50", "setting": "M14", "value": "2.4 µM (inactive)"},
      {"measurement": "GI50", "setting": "MDA-MB-231", "value": "2.69 µM (inactive)"},
      {"measurement": "GI50", "setting": "COLO 205", "value": "1.99 µM (inactive)"},
      {"measurement": "GI50", "setting": "HOP-62", "value": "2.69 µM (inactive)"},
      {"measurement": "GI50", "setting": "A498", "value": "> 10 µM (inactive)"},
      {"measurement": "GI50", "setting": "KM12", "value": "> 10 µM (inactive)"},
      {"measurement": "GI50", "setting": "UACC-62", "value": "> 10 µM (inactive)"},
      {"measurement": "GI50", "setting": "ACHN", "value": "3.34 µM (inactive)"},
      {"measurement": "GI50", "setting": "CCRF-CEM", "value": "0.733 µM (active)"},
      {"measurement": "GI50", "setting": "Hs-578T", "value": "> 10 µM (inactive)"},
      {"measurement": "GI50", "setting": "RXF 393", "value": "2.67 µM (inactive)"},
      {"measurement": "GI50", "setting": "SF-539", "value": "2.29 µM (inactive)"},
      {"measurement": "GI50", "setting": "BT-549", "value": "3.83 µM (inactive)"},
      {"measurement": "GI50", "setting": "OVCAR-3", "value": "1.51 µM (inactive)"},
      {"measurement": "GI50", "setting": "RPMI-8226", "value": "2.43 µM (inactive)"},
      {"measurement": "GI50", "setting": "LOX IMVI", "value": "1.47 µM (inactive)"},
      {"measurement": "GI50", "setting": "PC-3", "value": "6.25 µM (inactive)"},
      {"measurement": "GI50", "setting": "SK-OV-3", "value": "> 10 µM (inactive)"},
      {"measurement": "GI50", "setting": "MOLT-4", "value": "1.79 µM (inactive)"},
      {"measurement": "GI50", "setting": "HL-60", "value": "0.531 µM (active)"},
      {"measurement": "GI50", "setting": "SNB-75", "value": "> 10 µM (inactive)"},
      {"measurement": "GI50", "setting": "CAKI-1", "value": "4.04 µM (inactive)"},
      {"measurement": "GI50", "setting": "NCI-H460", "value": "> 10 µM (inactive)"},
      {"measurement": "GI50", "setting": "SN12C", "value": "5.05 µM (inactive)"},
      {"measurement": "GI50", "setting": "SF-295", "value": "> 10 µM (inactive)"},
      {"measurement": "GI50", "setting": "SW-620", "value": "0.565 µM (active)"},
      {"measurement": "GI50", "setting": "UACC-257", "value": "3.07 µM (inactive)"},
      {"measurement": "GI50", "setting": "NCI/ADR-RES", "value": "3.52 µM (inactive)"},
      {"measurement": "GI50", "setting": "Malme-3M", "value": "2.2 µM (inactive)"},
      {"measurement": "GI50", "setting": "OVCAR-4", "value": "2.81 µM (inactive)"},
      {"measurement": "GI50", "setting": "SK-MEL-5", "value": "> 10 µM (inactive)"},
      {"measurement": "GI50", "setting": "SR", "value": "2.61 µM (inactive)"},
      {"measurement": "GI50", "setting": "NCI-H23", "value": "3.3 µM (inactive)"}
    ]}
  ]
}
